Measured values as given in patent US12578273B2, “Ph-reversible leuco-BODIPY probe for in situ visualization of extracellular vesicles and their secretion from living cells” (The Chinese University of Hong Kong, priority 2021, dated 2026).

Experiment: pH-dependent spectroscopic properties (pH titration, absorption and fluorescence)
Assay type: physicochemical
Method: In each step of pH titration, small volumes (2-10 μL) of HCl at appropriate concentrations (0.1, 10^−2, or 10^−3 M) were pipetted directly into the measurement cell, followed by filling up with 2 mL of 1 μM dye-containing solution [either in a mixture of PBS/ethanol 1:1 (v/v) or 0.5% (v/v) DMSO]. The pH was monitored at 298 K using a digital pH meter (827 pH lab) equipped with a Biotrode (Metrohm, Herisau, Switzerland). Calibration of the instrument was performed with standard aqueous solutions of pH 4, 7, and 9 from Metrohm. Absorption and fluorescence measurements were carried out on an Agilent Cary 5000 spectrophotometer and a Horiba Jobin Yvon spectrometer (Nanolog FL3-2iHR), respectively.
We investigated the spectroscopic properties of the fluorescent probe as a function of pH in phosphate-buffered saline (PBS) containing 50% ethanol by UV-vis spectrophotometry and fluorimetry (FIGS. 21A-21F, 22-23).

[1] = pH range of 3-11, C2H5OH/PBS (1:1, v/v)

With `CCOC(=O)C(=CC1=[N+]2C(=C(c3ccncc3)c3ccc(C=C(C(=O)OCC)C(=O)OCC)n3[B-]2(F)F)C=C1)C(=O)OCC` [BODIPY] the “onset of the fluorescence peak at 618 nm (pH)” value (PBS containing 50% ethanol) was “about 7.4”, the red emission peak (PBS containing 50% ethanol) was 618 nm and the “longest wavelength absorption band” value (acidic conditions (pH of about 4), PBS containing 50% ethanol) was 602 nm. The “increase in emission at 618 nm” value (pH drops from 7.4 to 5.5) was “about 15 fold”, the “increase in emission at 618 nm” value (pH drops from 7.4 to 6.5) was 8 fold and the “increase in emission at 618 nm” value (pH drops from 7.4 to 7.0) was “about 3 fold”. For the same compound, the “pKa (corrected pKa)” value (reappearance of the absorption bands at 602 nm on reacidification with HCl, PBS containing 50% ethanol) was 5.28±0.05.

For `CN(C)CCNC(=O)CCc1ccc2n1[B-](F)(F)[N+]1=C(c3ccc[nH]3)C=CC1=C2` [LysoTracker™ Red, reference compound], the “absorbance as a function of pH” value [1] was “near-constant” and the “fluorescence as a function of pH” value [1] was “always-on”.
